Measurements published in ChEMBL document CHEMBL6087470, “Design of Small Non-Peptidic Ligands That Alter Heteromerization between Cannabinoid CB1 and Serotonin 5HT2A Receptors” (J Med Chem, 2025).
Calls of active or inactive are those of the source. No cut-off for these calls is given here.

How the values were obtained:
[1] = tested on: HEK293T; experiment: Disruption of human CB1R-nYFP-5HT2AR-cYFP heterodimerization co-transfected in HEK293T cells assessed as decrease in fluorescence signal at 4 uM incubated for 4 hrs by BiFC assay; type: cell-based
[2] = tested on: HEK-293T; experiment: Effect on G-protein coupling of 5HT2AR in forskolin-treated HEK293T cells transfected with CB1R-nYFP-5HT2AR-cYFP assessed as decrease in cAMP level pretreated with DOI/WIN by HTRF assay; type: functional, cell-based; conditions: Homo sapiens
[3] = tested on: HEK-293T; experiment: Upregulation of ERK1/2 phosphorylation in forskolin-treated HEK293T cells transfected with CB1R-nYFP-5HT2AR-cYFP pretreated with DOI/WIN by cAMP based HTRF assay; type: functional, cell-based; conditions: Homo sapiens
[4] = target: 5-hydroxytryptamine receptor 2A (Homo sapiens) (UniProt P28223); experiment: Binding affinity to human 5HT2AR-nYFP-5HT2AR-cYFP homodimerization co-transfected in HEK293T cells at 4 uM incubated for 4 hrs by BiFC assay; type: cell-based
[5] = tested on: HEK-293T; experiment: Effect on G-protein coupling of 5HT2AR in forskolin-treated HEK293T cells transfected with CB1R-nYFP-5HT2AR-cYFP pretreated with WIN by cAMP based HTRF assay; type: functional, cell-based; conditions: Homo sapiens
[6] = tested on: HEK-293T; experiment: Effect on ERK1/2 phosphorylation in forskolin-treated HEK293T cells transfected with CB1R-nYFP-5HT2AR-cYFP pretreated with DOI by cAMP based HTRF assay; type: functional, cell-based; conditions: Homo sapiens
[7] = tested on: HEK-293T; experiment: Upregulation of ERK1/2 phosphorylation in forskolin-treated HEK293T cells transfected with CB1R-nYFP-5HT2AR-cYFP pretreated with WIN/MDL by cAMP based HTRF assay; type: functional, cell-based; conditions: Homo sapiens
[8] = tested on: HEK-293T; experiment: Effect on G-protein coupling of 5HT2AR in forskolin-treated HEK293T cells transfected with CB1R-nYFP-5HT2AR-cYFP assessed as decrease in cAMP level pretreated with WIN/MDL by HTRF assay; type: functional, cell-based; conditions: Homo sapiens
[9] = tested on: HEK-293T; experiment: Upregulation of ERK1/2 phosphorylation in forskolin-treated HEK293T cells transfected with CB1R-nYFP-5HT2AR-cYFP pretreated with DOI/RIM by cAMP based HTRF assay; type: functional, cell-based; conditions: Homo sapiens
[10] = tested on: HEK-293T; experiment: Effect on G-protein coupling of 5HT2AR in forskolin-treated HEK293T cells transfected with CB1R-nYFP-5HT2AR-cYFP assessed as decrease in cAMP level pretreated with DOI/RIM by HTRF assay; type: functional, cell-based; conditions: Homo sapiens
[11] = tested on: HEK-293T; experiment: Effect on G-protein coupling of 5HT2AR in forskolin-treated HEK293T cells transfected with CB1R-nYFP-5HT2AR-cYFP pretreated with DOI by cAMP based HTRF assay; type: functional, cell-based; conditions: Homo sapiens
[12] = target: Cannabinoid receptor 1 (Homo sapiens) (UniProt P21554); experiment: Binding affinity to human CB1R-nYFP-CB1R-cYFP homodimerization co-transfected in HEK293T cells at 4 uM incubated for 4 hrs by BiFC assay; type: cell-based
Sequence of Cannabinoid receptor 1 (Homo sapiens) (P21554 whole entry): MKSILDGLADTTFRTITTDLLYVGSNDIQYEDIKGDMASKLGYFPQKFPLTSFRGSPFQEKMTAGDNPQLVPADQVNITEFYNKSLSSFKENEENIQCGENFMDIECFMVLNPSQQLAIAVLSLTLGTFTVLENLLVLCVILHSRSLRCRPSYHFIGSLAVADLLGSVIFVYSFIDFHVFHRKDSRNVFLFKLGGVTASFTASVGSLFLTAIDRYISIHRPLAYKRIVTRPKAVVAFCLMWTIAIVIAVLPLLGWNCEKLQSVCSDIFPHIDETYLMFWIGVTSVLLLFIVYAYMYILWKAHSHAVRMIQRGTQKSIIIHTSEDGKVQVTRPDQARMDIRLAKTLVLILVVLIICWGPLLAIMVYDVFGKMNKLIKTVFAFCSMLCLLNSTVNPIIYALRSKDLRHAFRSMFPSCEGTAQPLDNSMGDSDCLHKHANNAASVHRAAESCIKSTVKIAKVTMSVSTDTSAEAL

Sequence of 5-hydroxytryptamine receptor 2A (Homo sapiens) (P28223 whole entry): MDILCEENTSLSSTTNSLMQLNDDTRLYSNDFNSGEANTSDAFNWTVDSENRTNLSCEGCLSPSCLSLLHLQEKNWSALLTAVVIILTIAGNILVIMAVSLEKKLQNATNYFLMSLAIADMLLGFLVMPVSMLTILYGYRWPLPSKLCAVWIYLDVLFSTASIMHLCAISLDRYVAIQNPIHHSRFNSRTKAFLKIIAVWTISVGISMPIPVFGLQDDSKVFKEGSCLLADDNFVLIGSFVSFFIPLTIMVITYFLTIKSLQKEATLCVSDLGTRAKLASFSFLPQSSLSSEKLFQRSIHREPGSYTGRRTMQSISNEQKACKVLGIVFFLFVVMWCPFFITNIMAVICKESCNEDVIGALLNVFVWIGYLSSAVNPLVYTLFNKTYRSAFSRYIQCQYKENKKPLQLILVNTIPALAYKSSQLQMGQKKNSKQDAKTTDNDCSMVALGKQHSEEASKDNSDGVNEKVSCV

Structure (SMILES)	Activity [1]	Activity [2]	Activity [3]	Activity [4]	Activity [5]	Activity [6]	Activity [7]	Activity [8]	Activity [9]	Activity [10]	Activity [11]	Activity [12]
CC(C)COCC(NC(=O)c1cccnc1)c1ccco1 (stereo not given)	Active											
CC(C)COc1nc(-c2ccccc2)cc(-c2ccccc2)c1C#N	Active											
CC(C)NC(=O)Cn1ccc2ccc(OCc3ccccc3)cc21	Active	Active	Active	Active	No effect	No effect	Active	Active	Active	Active	No effect	inactive
CC(C)CNC(=O)c1oc2ccccc2c1COc1ccccc1	Active	Active	Active	Active	No effect	No effect	Active	Active	Active	Active	No effect	inactive
C=CCNC(=O)c1cn(-c2ccccc2)nc1-c1cccs1				inactive								Active
CCC(CC)C(=O)N(Cc1ccccc1)Cc1ccccc1	Active	Active	Active	Active	No effect	No effect	Active	Active	Active	Active	No effect	inactive
